From ChEMBL document CHEMBL1201862, “PubChem BioAssay data set” (2004)
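Cultured in 96-well plates, cells were exposed to test compound for 48 hours across five concentrations. Abbreviation: GI50, concentration required for 50% inhibition of growth.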 Calls of active or inactive are those of the source. Rule as the data show it: active = GI50 up to about 1.1 µM and inactive = higher.

Tests used:
Assay in all cases: DTP human tumour cell line panel, 48 h
MDA-MB-435 = test system: MDA-MB-435
KM12 = test system: KM12
RXF 393 = test system: RXF 393
PC-3 = test system: PC-3
NCI/ADR-RES = test system: NCI/ADR-RES
HOP-62 = test system: HOP-62
OVCAR-8 = test system: OVCAR-8
NCI-H522 = test system: NCI-H522
SK-MEL-2 = test system: SK-MEL-2
HT-29 = test system: HT-29
CCRF-CEM = test system: CCRF-CEM
UACC-257 = test system: UACC-257
DU-145 = test system: DU-145
BT-549 = test system: BT-549
SF-268 = test system: SF-268
SF-295 = test system: SF-295
HCC 2998 = test system: HCC 2998
ACHN = test system: ACHN
SK-MEL-28 = test system: SK-MEL-28
LXFL 529 = test system: LXFL 529

Compound: CSc1ccc(NC(=O)C2CCCCC2C(=O)O)cc1 (configuration not stated)
- GI50 (MDA-MB-435): > 100 µM (inactive)
- GI50 (KM12): > 100 µM (inactive)
- GI50 (RXF 393): > 100 µM (inactive)
- GI50 (PC-3): > 100 µM (inactive)
- GI50 (NCI/ADR-RES): > 100 µM (inactive)
- GI50 (HOP-62): > 100 µM (inactive)
- GI50 (OVCAR-8): > 100 µM (inactive)
- GI50 (NCI-H522): > 100 µM (inactive)
- GI50 (SK-MEL-2): > 100 µM (inactive)
- GI50 (HT-29): > 100 µM (inactive)
- GI50 (CCRF-CEM): > 100 µM (inactive)
- GI50 (UACC-257): > 100 µM (inactive)
- GI50 (DU-145): > 100 µM (inactive)
- GI50 (BT-549): > 100 µM (inactive)
- GI50 (SF-268): > 100 µM (inactive)
- GI50 (SF-295): > 100 µM (inactive)
- GI50 (HCC 2998): > 100 µM (inactive)
- GI50 (ACHN): > 100 µM (inactive)
- GI50 (SK-MEL-28): > 100 µM (inactive)

Compound: CSc1nc(Cl)c2c(n1)Sc1nc3cc4c(cc3n1C2O)OCCO4 (configuration not stated)
- GI50 (MDA-MB-435): 0.0158 µM (active)
- GI50 (KM12): 0.06 µM (active)
- GI50 (RXF 393): 0.354 µM (active)
- GI50 (PC-3): 0.045 µM (active)
- GI50 (NCI/ADR-RES): 0.149 µM (active)
- GI50 (HOP-62): 0.419 µM (active)
- GI50 (OVCAR-8): 0.106 µM (active)
- GI50 (NCI-H522): 0.0382 µM (active)
- GI50 (SK-MEL-2): 0.923 µM (active)
- GI50 (HT-29): 0.0226 µM (active)
- GI50 (CCRF-CEM): 0.0246 µM (active)
- GI50 (UACC-257): 11.1 µM (inactive)
- GI50 (DU-145): 0.124 µM (active)
- GI50 (BT-549): 0.489 µM (active)
- GI50 (SF-268): 0.459 µM (active)
- GI50 (SF-295): 0.379 µM (active)
- GI50 (HCC 2998): 0.318 µM (active)
- GI50 (ACHN): 0.131 µM (active)
- GI50 (SK-MEL-28): 0.501 µM (active)

Compound: COc1cccc(C(=O)O[C@H]2[C@@H]3[C@]4(OC(C)=O)CO[C@@H]4C[C@H](O)[C@@]3(C)C(=O)[C@H](OC(C)=O)C3=C(C)[C@@H](OC(=O)[C@H](O)[C@@H](NC(=O)OC(C)(C)C)c4ccco4)C[C@]2(O)C3(C)C)c1
- GI50 (MDA-MB-435): < 0.00375 µM (active)
- GI50 (KM12): < 0.00375 µM (active)
- GI50 (RXF 393): 0.00726 µM (active)
- GI50 (PC-3): < 0.00375 µM (active)
- GI50 (NCI/ADR-RES): 0.0107 µM (active)
- GI50 (HOP-62): < 0.00375 µM (active)
- GI50 (OVCAR-8): < 0.00375 µM (active)
- GI50 (NCI-H522): < 0.00375 µM (active)
- GI50 (SK-MEL-2): < 0.00375 µM (active)
- GI50 (HT-29): < 0.00375 µM (active)
- GI50 (CCRF-CEM): < 0.00375 µM (active)
- GI50 (UACC-257): 21.3 µM (inactive)
- GI50 (DU-145): < 0.00375 µM (active)
- GI50 (BT-549): 0.0556 µM (active)
- GI50 (SF-268): < 0.00375 µM (active)
- GI50 (SF-295): < 0.00375 µM (active)
- GI50 (HCC 2998): < 0.00375 µM (active)
- GI50 (ACHN): 0.139 µM (active)
- GI50 (SK-MEL-28): 3.82 µM (inactive)

Compound: O=C(NCCOCCO)c1ccc(O)cc1
- GI50 (RXF 393): > 100 µM (inactive)
- GI50 (LXFL 529): > 100 µM (inactive)
- GI50 (HOP-62): > 100 µM (inactive)
- GI50 (OVCAR-8): > 100 µM (inactive)
- GI50 (NCI-H522): > 100 µM (inactive)
- GI50 (CCRF-CEM): > 100 µM (inactive)
- GI50 (SF-268): > 100 µM (inactive)
- GI50 (ACHN): > 100 µM (inactive)
- GI50 (SK-MEL-28): > 100 µM (inactive)

Compound: O=c1c2ncn(CCCl)c2n(-c2ccccc2)c(=S)n1-c1ccccc1
- GI50 (MDA-MB-435): > 100 µM (inactive)
- GI50 (KM12): > 100 µM (inactive)
- GI50 (RXF 393): > 100 µM (inactive)
- GI50 (PC-3): > 100 µM (inactive)
- GI50 (NCI/ADR-RES): > 100 µM (inactive)
- GI50 (HOP-62): > 100 µM (inactive)
- GI50 (OVCAR-8): > 100 µM (inactive)
- GI50 (NCI-H522): > 100 µM (inactive)
- GI50 (SK-MEL-2): > 100 µM (inactive)
- GI50 (HT-29): > 100 µM (inactive)
- GI50 (CCRF-CEM): > 100 µM (inactive)
- GI50 (UACC-257): > 100 µM (inactive)
- GI50 (DU-145): > 100 µM (inactive)
- GI50 (BT-549): > 100 µM (inactive)
- GI50 (SF-268): > 100 µM (inactive)
- GI50 (SF-295): > 100 µM (inactive)
- GI50 (HCC 2998): > 100 µM (inactive)
- GI50 (ACHN): > 100 µM (inactive)
- GI50 (SK-MEL-28): > 100 µM (inactive)

Compound: CC(=O)C1=C(O)/C(=C\c2ccco2)OC1=O
- GI50 (MDA-MB-435): > 10 µM (inactive)
- GI50 (KM12): > 10 µM (inactive)
- GI50 (RXF 393): > 10 µM (inactive)
- GI50 (PC-3): > 10 µM (inactive)
- GI50 (NCI/ADR-RES): > 10 µM (inactive)
- GI50 (HOP-62): > 10 µM (inactive)
- GI50 (OVCAR-8): > 10 µM (inactive)
- GI50 (NCI-H522): > 10 µM (inactive)
- GI50 (SK-MEL-2): > 10 µM (inactive)
- GI50 (HT-29): > 10 µM (inactive)
- GI50 (CCRF-CEM): > 10 µM (inactive)
- GI50 (UACC-257): > 10 µM (inactive)
- GI50 (DU-145): > 10 µM (inactive)
- GI50 (BT-549): > 10 µM (inactive)
- GI50 (SF-268): > 10 µM (inactive)
- GI50 (SF-295): > 10 µM (inactive)
- GI50 (HCC 2998): > 10 µM (inactive)
- GI50 (ACHN): > 10 µM (inactive)
- GI50 (SK-MEL-28): > 10 µM (inactive)

Compound: NC(=O)Nc1c([N+](=O)[O-])cc(C(F)(F)F)cc1[N+](=O)[O-]
- GI50 (KM12): 57.8 µM (inactive)
- GI50 (RXF 393): > 100 µM (inactive)
- GI50 (LXFL 529): > 100 µM (inactive)
- GI50 (HOP-62): > 100 µM (inactive)
- GI50 (OVCAR-8): 57.5 µM (inactive)
- GI50 (NCI-H522): 32.6 µM (inactive)
- GI50 (SK-MEL-2): > 100 µM (inactive)
- GI50 (HT-29): 33.7 µM (inactive)
- GI50 (CCRF-CEM): > 100 µM (inactive)
- GI50 (UACC-257): 72.3 µM (inactive)
- GI50 (SF-268): > 100 µM (inactive)
- GI50 (SF-295): > 100 µM (inactive)
- GI50 (ACHN): > 100 µM (inactive)
- GI50 (SK-MEL-28): > 100 µM (inactive)

Compound: COc1cc2c(cc1O)[C@@H]1Cc3c(cc(OC)c(OC)c3Oc3cc4c(cc3OC)CCN(C)[C@@H]4Cc3ccc(O)cc3)[C@H](C2)N1C
- GI50 (MDA-MB-435): 20.6 µM (inactive)
- GI50 (KM12): 45.1 µM (inactive)
- GI50 (RXF 393): 2.1 µM (inactive)
- GI50 (PC-3): 36.2 µM (inactive)
- GI50 (NCI/ADR-RES): > 100 µM (inactive)
- GI50 (HOP-62): > 95.5 µM (inactive)
- GI50 (OVCAR-8): 53 µM (inactive)
- GI50 (NCI-H522): 27.7 µM (inactive)
- GI50 (SK-MEL-2): 22.6 µM (inactive)
- GI50 (HT-29): 35.4 µM (inactive)
- GI50 (CCRF-CEM): 28.6 µM (inactive)
- GI50 (UACC-257): 23.2 µM (inactive)
- GI50 (DU-145): > 100 µM (inactive)
- GI50 (BT-549): 41.2 µM (inactive)
- GI50 (SF-268): > 78.9 µM (inactive)
- GI50 (SF-295): 46 µM (inactive)
- GI50 (HCC 2998): 31 µM (inactive)
- GI50 (ACHN): > 83.2 µM (inactive)
- GI50 (SK-MEL-28): 18.6 µM (inactive)
